Measurements from the supplement of paper PMC10627819.

How the values were obtained:
B. subtilis 168 [1] = test: fitness (endpoint OD595 vs no drug) (fraction); higher = more growth
How it was run: (§1)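 Bacterial growth was followed in 384-well plates seeded at OD595 0.01, with 30 µl per well, or 55 µl for S. pneumoniae, in TSB, LB Lennox or CY at 37 °C. OD595 was read every 30 min for 14 h, and each reading had the first reading subtracted as background. Fitness is the background-corrected optical density at entry into stationary phase divided by the robust mean of the no-drug control wells. This ratio is capped at 1.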

S. aureus DSM 20231 [2] = test: as above
How it was run: as §1

S. pneumoniae D39V [3] = test: as above
How it was run: as §1

S. aureus Newman [4] = test: as above
How it was run: as §1

B. subtilis 168 [5] = test: Bliss interaction score (quartile over a dose matrix) (fitness difference); higher = more antagonism (negative = synergy)
How it was run: (§2)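 Quartiles summarise the Bliss score over technical, biological and donor/recipient replicates, where the score is observed minus expected fitness under a product model. Expected fitness uses single-drug values inferred from combination data. Fitness is OD595 at entry into stationary phase over the plate's robust no-drug mean, capped at 1.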

S. aureus DSM 20231 [6] = test: as above
How it was run: as §2

S. pneumoniae D39V [7] = test: as above
How it was run: as §2

S. aureus Newman [8] = test: as above
How it was run: as §2
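Wherever Bliss interaction score (quartile over a dose matrix) is given: first quartile when negative (synergy) and third quartile when positive (antagonism).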

C[n+]1ccc(-c2cc[n+](C)cc2)cc1 [Paraquat] + CN(N=O)C(=O)N[C@@H](C=O)[C@@H](O)[C@H](O)[C@H](O)CO [Streptozotocin]
fitness, B. subtilis 168 [1], one replicate
Conditions	first compound 1.25 µg/mL	first compound 2.5 µg/mL	first compound 5 µg/mL
partner 0.15 µg/mL	≥ 1	≥ 1	0.845
partner 0.3 µg/mL	≥ 1	0.964	0.851
partner 0.6 µg/mL	0.945	0.956	0.776

fitness
Conditions	first compound 1.25 µg/mL	first compound 1.5 µg/mL	first compound 2.5 µg/mL	first compound 3 µg/mL	first compound 5 µg/mL	first compound 6 µg/mL
S. aureus DSM 20231 [2], partner 0.15 µg/mL	0.865	–	0.835	–	0.774	–
S. aureus DSM 20231 [2], partner 0.3 µg/mL	0.795	–	0.842	–	0.758	–
S. aureus DSM 20231 [2], partner 0.6 µg/mL	0.679	–	0.689	–	0.636	–
S. aureus Newman [4], partner 0.15 µg/mL	0.781	–	0.769	–	0.727	–
S. aureus Newman [4], partner 0.3 µg/mL	0.66	–	0.654	–	0.637	–
S. aureus Newman [4], partner 0.6 µg/mL	0.523	–	0.536	–	0.508	–
S. pneumoniae D39V [3], partner 1.2 µg/mL	–	0.989	–	0.983	–	0.969
S. pneumoniae D39V [3], partner 2.4 µg/mL	–	0.97	–	0.926	–	0.977
S. pneumoniae D39V [3], partner 4.8 µg/mL	–	0.944	–	0.955	–	0.933

Conditions	Bliss interaction score
B. subtilis 168 [5]	0.0356
S. aureus DSM 20231 [6]	-0.0445
S. aureus Newman [8]	-0.0522
S. pneumoniae D39V [7]	0.0357

C[n+]1ccc(-c2cc[n+](C)cc2)cc1 [Paraquat] + CN[C@@H]1[C@H](O)[C@H](NC)[C@H]2O[C@@]3(O)C(=O)C[C@@H](C)O[C@H]3O[C@@H]2[C@H]1O [Spectinomycin]
fitness
Conditions	first compound 1.25 µg/mL	first compound 1.5 µg/mL	first compound 2.5 µg/mL	first compound 3 µg/mL	first compound 5 µg/mL	first compound 6 µg/mL
B. subtilis 168 [1], partner 2 µg/mL	0.97	–	0.989	–	0.902	–
B. subtilis 168 [1], partner 4 µg/mL	0.986	–	0.964	–	0.847	–
B. subtilis 168 [1], partner 8 µg/mL	0.877	–	0.882	–	0.847	–
S. aureus DSM 20231 [2], partner 4 µg/mL	0.946	–	0.909	–	0.844	–
S. aureus DSM 20231 [2], partner 8 µg/mL	0.913	–	0.844	–	0.817	–
S. aureus DSM 20231 [2], partner 16 µg/mL	0.837	–	0.874	–	0.758	–
S. aureus Newman [4], partner 4 µg/mL	0.857	–	0.85	–	0.825	–
S. aureus Newman [4], partner 8 µg/mL	0.872	–	0.825	–	0.906	–
S. aureus Newman [4], partner 16 µg/mL	0.89	–	0.849	–	0.833	–
S. pneumoniae D39V [3], partner 4 µg/mL	–	0.964	–	0.976	–	0.995
S. pneumoniae D39V [3], partner 8 µg/mL	–	0.958	–	0.969	–	0.951

fitness, one replicate
Conditions	first compound 1.25 µg/mL	first compound 1.5 µg/mL	first compound 2.5 µg/mL	first compound 3 µg/mL	first compound 5 µg/mL	first compound 6 µg/mL
S. aureus DSM 20231 [2], partner 32 µg/mL	0.669	–	0.713	–	0.735	–
S. aureus DSM 20231 [2], partner 64 µg/mL	0.0748	–	0.0594	–	0.0636	–
S. aureus Newman [4], partner 32 µg/mL	0.62	–	0.6	–	0.563	–
S. aureus Newman [4], partner 64 µg/mL	0.0529	–	0.0827	–	0.106	–
S. pneumoniae D39V [3], partner 16 µg/mL	–	0.851	–	0.856	–	0.913

Conditions	Bliss interaction score
B. subtilis 168 [5]	0.0537
S. aureus DSM 20231 [6]	-0.046
S. aureus Newman [8]	0.0596
S. pneumoniae D39V [7]	0.0349
